# Results reported in the kinase profiling compilation of Christmann-Franck et al. (2016).
# How the values were obtained:
# [1] = target: ACVRL1 (human) (UniProt P37023); assay: KINOMEscan competition binding; conditions: compound 10.0 µM
# [2] = target: SYK (human) (UniProt P43405); assay: KINOMEscan competition binding; conditions: compound 10.0 µM
# [3] = target: STK33 (human) (UniProt Q9BYT3); assay: KINOMEscan competition binding; conditions: compound 10.0 µM
# [4] = target: STK17A (human) (UniProt Q9UEE5); assay: KINOMEscan competition binding; conditions: compound 10.0 µM
# [5] = target: MAPK10 (human) (UniProt P53779); assay: KINOMEscan competition binding; conditions: compound 10.0 µM
# [6] = target: MERTK (human) (UniProt Q12866); assay: KINOMEscan competition binding; conditions: compound 10.0 µM
# [7] = target: ALK (human) (UniProt Q9UM73); assay: KINOMEscan competition binding; conditions: compound 10.0 µM
# [8] = target: ULK3 (human) (UniProt Q6PHR2); assay: KINOMEscan competition binding; conditions: compound 10.0 µM
# [9] = target: MAP4K1 (human) (UniProt Q92918); assay: KINOMEscan competition binding; conditions: compound 10.0 µM
# [10] = target: EPHA5 (human) (UniProt P54756); assay: KINOMEscan competition binding; conditions: compound 10.0 µM
# [11] = target: JAK2 JH1 catalytic (human) (UniProt O60674); assay: KINOMEscan competition binding; conditions: compound 10.0 µM
# [12] = target: YES1 (human) (UniProt P07947); assay: KINOMEscan competition binding; conditions: compound 10.0 µM
# [13] = target: ACVR2A (human) (UniProt P27037); assay: KINOMEscan competition binding; conditions: compound 10.0 µM
# [14] = target: AURKC (human) (UniProt Q9UQB9); assay: KINOMEscan competition binding; conditions: compound 10.0 µM
# [15] = target: CDK2 (human) (UniProt P24941); assay: KINOMEscan competition binding; conditions: compound 10.0 µM
# [16] = target: STK4 (human) (UniProt Q13043); assay: KINOMEscan competition binding; conditions: compound 10.0 µM
# [17] = target: AURKA (human) (UniProt O14965); assay: KINOMEscan competition binding; conditions: compound 10.0 µM
# [18] = target: BTK (human) (UniProt Q06187); assay: KINOMEscan competition binding; conditions: compound 10.0 µM
# [19] = target: NTRK2 (human) (UniProt Q16620); assay: KINOMEscan competition binding; conditions: compound 10.0 µM
# [20] = target: MAP3K11 (human) (UniProt Q16584); assay: KINOMEscan competition binding; conditions: compound 10.0 µM
# [21] = target: STK17B (human) (UniProt O94768); assay: KINOMEscan competition binding; conditions: compound 10.0 µM
# [22] = target: CSF1R (human) (UniProt P07333); assay: KINOMEscan competition binding; conditions: compound 10.0 µM
# [23] = target: SLK (human) (UniProt Q9H2G2); assay: KINOMEscan competition binding; conditions: compound 10.0 µM
# [24] = target: MAPK12 (human) (UniProt P53778); assay: KINOMEscan competition binding; conditions: compound 10.0 µM
# [25] = target: DAPK2 (human) (UniProt Q9UIK4); assay: KINOMEscan competition binding; conditions: compound 10.0 µM
# [26] = target: GAK (human) (UniProt O14976); assay: KINOMEscan competition binding; conditions: compound 10.0 µM
# [27] = target: KDR (human) (UniProt P35968); assay: KINOMEscan competition binding; conditions: compound 10.0 µM
# [28] = target: ACVR2B (human) (UniProt Q13705); assay: KINOMEscan competition binding; conditions: compound 10.0 µM
# [29] = target: MAP4K5 (human) (UniProt Q9Y4K4); assay: KINOMEscan competition binding; conditions: compound 10.0 µM
# [30] = target: CAMKK1 (human) (UniProt Q8N5S9); assay: KINOMEscan competition binding; conditions: compound 10.0 µM
# [31] = target: LCK (human) (UniProt P06239); assay: KINOMEscan competition binding; conditions: compound 10.0 µM
# [32] = target: EPHB1 (human) (UniProt P54762); assay: KINOMEscan competition binding; conditions: compound 10.0 µM
# [33] = target: PRKAA2 (human) (UniProt P54646); assay: KINOMEscan competition binding; conditions: compound 10.0 µM
# [34] = target: STK16 (human) (UniProt O75716); assay: KINOMEscan competition binding; conditions: compound 10.0 µM
# [35] = target: MKNK2 (human) (UniProt Q9HBH9); assay: KINOMEscan competition binding; conditions: compound 10.0 µM
# [36] = target: ABL1 (human) (UniProt P00519); assay: KINOMEscan competition binding; conditions: compound 10.0 µM
# [37] = target: FGR (human) (UniProt P09769); assay: KINOMEscan competition binding; conditions: compound 10.0 µM
# [38] = target: LYN (human) (UniProt P07948); assay: KINOMEscan competition binding; conditions: compound 10.0 µM
# [39] = target: TTK (human) (UniProt P33981); assay: KINOMEscan competition binding; conditions: compound 10.0 µM
# [40] = target: TNIK (human) (UniProt Q9UKE5); assay: KINOMEscan competition binding; conditions: compound 10.0 µM
# [41] = target: ROS1 (human) (UniProt P08922)
# Sequence of MKNK2 (human) (Q9HBH9 whole entry, looked up): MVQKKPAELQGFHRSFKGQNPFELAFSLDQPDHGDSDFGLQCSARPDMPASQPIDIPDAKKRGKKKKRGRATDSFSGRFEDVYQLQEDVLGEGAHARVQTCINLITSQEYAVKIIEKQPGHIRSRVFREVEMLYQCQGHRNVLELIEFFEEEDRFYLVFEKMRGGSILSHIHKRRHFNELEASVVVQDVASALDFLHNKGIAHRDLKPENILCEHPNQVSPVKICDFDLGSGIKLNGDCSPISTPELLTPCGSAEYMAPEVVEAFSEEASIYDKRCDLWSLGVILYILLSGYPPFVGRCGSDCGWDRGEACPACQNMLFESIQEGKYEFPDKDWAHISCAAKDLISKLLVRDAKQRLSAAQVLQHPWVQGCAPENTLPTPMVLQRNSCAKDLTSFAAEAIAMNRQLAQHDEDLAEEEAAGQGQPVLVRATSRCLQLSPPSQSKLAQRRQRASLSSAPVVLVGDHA
# Sequence of GAK (human) (O14976 whole entry, looked up): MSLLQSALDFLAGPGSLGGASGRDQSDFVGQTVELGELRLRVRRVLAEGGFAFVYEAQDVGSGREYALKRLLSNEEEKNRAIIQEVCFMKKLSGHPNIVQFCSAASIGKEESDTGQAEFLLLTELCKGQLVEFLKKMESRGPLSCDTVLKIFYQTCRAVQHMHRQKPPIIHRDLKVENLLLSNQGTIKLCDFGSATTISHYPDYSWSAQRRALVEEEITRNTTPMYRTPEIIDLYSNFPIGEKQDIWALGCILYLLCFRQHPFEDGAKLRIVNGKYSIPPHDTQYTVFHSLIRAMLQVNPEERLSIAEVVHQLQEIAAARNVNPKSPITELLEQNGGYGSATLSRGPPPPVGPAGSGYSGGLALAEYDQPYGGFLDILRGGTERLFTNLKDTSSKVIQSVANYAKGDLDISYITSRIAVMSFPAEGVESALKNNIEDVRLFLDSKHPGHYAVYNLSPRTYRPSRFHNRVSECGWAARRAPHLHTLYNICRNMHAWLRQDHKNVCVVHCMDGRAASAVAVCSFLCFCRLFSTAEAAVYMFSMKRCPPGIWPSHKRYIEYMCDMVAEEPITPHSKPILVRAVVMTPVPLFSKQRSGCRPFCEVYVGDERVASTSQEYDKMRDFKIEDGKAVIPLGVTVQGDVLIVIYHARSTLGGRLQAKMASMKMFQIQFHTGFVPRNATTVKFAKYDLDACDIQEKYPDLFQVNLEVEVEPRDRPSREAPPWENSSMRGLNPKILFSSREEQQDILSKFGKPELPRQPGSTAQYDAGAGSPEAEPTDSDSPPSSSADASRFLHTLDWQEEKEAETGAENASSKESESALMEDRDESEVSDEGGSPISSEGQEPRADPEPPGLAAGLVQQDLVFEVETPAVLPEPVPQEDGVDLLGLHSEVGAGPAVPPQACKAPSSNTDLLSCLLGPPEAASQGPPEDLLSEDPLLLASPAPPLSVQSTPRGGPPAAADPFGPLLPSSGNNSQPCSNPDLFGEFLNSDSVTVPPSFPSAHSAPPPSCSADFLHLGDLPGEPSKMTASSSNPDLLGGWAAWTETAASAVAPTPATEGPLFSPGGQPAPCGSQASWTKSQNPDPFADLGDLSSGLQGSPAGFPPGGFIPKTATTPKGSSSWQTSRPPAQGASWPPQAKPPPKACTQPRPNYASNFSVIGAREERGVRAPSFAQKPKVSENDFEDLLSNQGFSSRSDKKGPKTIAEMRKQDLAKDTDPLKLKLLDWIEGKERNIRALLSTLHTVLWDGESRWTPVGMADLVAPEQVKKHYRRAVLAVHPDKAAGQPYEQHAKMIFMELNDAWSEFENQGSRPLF
# Sequence of CAMKK1 (human) (Q8N5S9 whole entry, looked up): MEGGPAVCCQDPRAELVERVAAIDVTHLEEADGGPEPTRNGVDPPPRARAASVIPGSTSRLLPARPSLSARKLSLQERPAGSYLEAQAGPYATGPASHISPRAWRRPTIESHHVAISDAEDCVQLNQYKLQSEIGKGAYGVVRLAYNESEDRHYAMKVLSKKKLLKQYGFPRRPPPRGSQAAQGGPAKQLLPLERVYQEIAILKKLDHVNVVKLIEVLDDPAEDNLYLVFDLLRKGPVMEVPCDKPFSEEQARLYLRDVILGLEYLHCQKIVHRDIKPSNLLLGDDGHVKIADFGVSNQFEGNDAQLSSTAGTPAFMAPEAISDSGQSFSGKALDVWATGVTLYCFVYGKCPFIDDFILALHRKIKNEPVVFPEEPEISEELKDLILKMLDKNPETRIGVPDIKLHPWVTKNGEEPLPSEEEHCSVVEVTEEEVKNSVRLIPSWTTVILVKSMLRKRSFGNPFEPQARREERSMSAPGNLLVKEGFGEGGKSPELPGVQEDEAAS
# Sequence of FGR (human) (P09769 whole entry, looked up): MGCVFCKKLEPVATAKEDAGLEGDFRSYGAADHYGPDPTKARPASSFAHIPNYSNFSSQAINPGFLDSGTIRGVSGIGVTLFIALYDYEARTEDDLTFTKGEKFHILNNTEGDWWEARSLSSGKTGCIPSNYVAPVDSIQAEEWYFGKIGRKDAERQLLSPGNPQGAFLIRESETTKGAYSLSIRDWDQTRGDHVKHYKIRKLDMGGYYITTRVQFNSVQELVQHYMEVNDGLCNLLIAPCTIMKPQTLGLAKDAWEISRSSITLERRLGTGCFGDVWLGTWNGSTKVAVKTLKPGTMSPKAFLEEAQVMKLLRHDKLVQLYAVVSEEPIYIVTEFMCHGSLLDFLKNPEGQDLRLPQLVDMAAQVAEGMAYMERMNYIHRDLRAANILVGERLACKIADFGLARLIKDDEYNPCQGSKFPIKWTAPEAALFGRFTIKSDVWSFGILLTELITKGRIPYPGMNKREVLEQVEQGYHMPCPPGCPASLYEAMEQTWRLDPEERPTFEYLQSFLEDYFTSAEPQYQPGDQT
# Sequence of MAPK10 (human) (P53779 whole entry, looked up): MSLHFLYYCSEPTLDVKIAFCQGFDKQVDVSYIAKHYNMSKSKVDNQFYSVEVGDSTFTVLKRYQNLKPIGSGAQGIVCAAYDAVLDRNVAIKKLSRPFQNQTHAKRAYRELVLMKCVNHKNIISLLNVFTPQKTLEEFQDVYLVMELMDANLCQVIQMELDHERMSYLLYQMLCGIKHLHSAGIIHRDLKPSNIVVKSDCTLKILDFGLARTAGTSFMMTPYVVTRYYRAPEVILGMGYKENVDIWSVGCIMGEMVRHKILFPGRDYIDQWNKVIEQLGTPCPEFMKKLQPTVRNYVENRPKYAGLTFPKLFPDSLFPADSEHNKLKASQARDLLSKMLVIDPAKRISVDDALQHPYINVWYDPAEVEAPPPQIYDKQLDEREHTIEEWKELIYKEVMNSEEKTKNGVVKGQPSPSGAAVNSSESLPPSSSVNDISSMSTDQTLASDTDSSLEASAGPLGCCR
# Sequence of ABL1 (human) (P00519 whole entry, looked up): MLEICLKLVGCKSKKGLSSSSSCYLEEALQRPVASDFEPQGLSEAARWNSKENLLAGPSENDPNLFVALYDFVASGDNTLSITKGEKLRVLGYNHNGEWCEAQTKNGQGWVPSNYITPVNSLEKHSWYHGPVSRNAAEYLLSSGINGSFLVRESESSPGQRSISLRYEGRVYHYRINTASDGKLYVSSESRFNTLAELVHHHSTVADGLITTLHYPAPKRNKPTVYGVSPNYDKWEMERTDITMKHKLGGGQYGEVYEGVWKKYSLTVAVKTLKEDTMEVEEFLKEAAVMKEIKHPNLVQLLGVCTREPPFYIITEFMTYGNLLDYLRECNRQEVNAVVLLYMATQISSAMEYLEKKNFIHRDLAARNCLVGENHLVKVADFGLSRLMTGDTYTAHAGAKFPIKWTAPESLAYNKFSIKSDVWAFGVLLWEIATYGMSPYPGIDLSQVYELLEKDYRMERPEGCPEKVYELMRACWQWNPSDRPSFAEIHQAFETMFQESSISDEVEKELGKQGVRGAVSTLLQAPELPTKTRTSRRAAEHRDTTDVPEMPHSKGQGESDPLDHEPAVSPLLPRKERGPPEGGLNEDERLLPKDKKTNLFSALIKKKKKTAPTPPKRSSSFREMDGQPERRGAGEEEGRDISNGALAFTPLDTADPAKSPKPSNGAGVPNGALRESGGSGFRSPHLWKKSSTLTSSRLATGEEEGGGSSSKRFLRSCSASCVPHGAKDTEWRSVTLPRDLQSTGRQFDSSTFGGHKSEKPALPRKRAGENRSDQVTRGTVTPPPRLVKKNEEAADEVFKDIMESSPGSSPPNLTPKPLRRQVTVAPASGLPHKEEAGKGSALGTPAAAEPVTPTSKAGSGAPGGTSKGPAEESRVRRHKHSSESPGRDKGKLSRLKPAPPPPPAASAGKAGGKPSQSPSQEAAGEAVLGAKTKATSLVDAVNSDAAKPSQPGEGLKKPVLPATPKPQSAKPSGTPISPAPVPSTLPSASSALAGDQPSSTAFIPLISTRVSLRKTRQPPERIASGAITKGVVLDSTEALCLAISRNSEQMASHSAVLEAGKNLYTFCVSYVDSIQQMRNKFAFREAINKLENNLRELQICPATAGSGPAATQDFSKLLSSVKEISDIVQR
# Sequence of YES1 (human) (P07947 whole entry, looked up): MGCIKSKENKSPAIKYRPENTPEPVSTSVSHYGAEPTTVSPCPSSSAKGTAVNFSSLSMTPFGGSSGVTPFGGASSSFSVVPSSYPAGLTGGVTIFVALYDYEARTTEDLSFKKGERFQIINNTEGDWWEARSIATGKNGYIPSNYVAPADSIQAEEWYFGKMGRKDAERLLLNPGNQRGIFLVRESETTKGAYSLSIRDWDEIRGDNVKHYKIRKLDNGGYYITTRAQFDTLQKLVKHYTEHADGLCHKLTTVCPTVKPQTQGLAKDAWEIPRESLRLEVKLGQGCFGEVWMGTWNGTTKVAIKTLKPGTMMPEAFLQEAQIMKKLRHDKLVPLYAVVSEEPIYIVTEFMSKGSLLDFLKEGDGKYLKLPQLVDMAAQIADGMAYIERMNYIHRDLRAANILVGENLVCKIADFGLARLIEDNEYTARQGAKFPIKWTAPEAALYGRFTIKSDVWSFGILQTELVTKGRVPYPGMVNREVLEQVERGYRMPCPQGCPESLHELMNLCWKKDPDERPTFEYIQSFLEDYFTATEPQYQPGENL
smiles,measurement,setting,value
CCS(=O)(=O)Nc1ccc2c(c1)[C@H](/C(=N/c1ccc(CN3CCCCC3)cc1)c1ccccc1)C(=O)N2,"kinase still bound, per cent of control",[1],0%
same,"kinase still bound, per cent of control",[2],1.3%
same,"kinase still bound, per cent of control",[3],0%
same,"kinase still bound, per cent of control",[4],0%
same,"kinase still bound, per cent of control",[5],0%
same,"kinase still bound, per cent of control",[6],0%
same,"kinase still bound, per cent of control",[7],0%
same,"kinase still bound, per cent of control",[8],0%
same,"kinase still bound, per cent of control",[9],0.5%
same,"kinase still bound, per cent of control",[10],0%
same,"kinase still bound, per cent of control",[11],0.1%
same,"kinase still bound, per cent of control",[12],0%
same,"kinase still bound, per cent of control",[13],22.7%
same,"kinase still bound, per cent of control",[14],0.5%
same,"kinase still bound, per cent of control",[15],28.3%
same,"kinase still bound, per cent of control",[16],0%
same,"kinase still bound, per cent of control",[17],0%
same,"kinase still bound, per cent of control",[18],0%
same,"kinase still bound, per cent of control",[19],0%
same,"kinase still bound, per cent of control",[20],12.3%
same,"kinase still bound, per cent of control",[21],0.1%
same,"kinase still bound, per cent of control",[22],0%
same,"kinase still bound, per cent of control",[23],0%
same,"kinase still bound, per cent of control",[24],no effect (inactive)
same,"kinase still bound, per cent of control",[25],3.8%
same,"kinase still bound, per cent of control",[26],2.7%
same,"kinase still bound, per cent of control",[27],0%
same,"kinase still bound, per cent of control",[28],2.4%
same,"kinase still bound, per cent of control",[29],0%
same,"kinase still bound, per cent of control",[30],0.1%
same,"kinase still bound, per cent of control",[31],0%
same,"kinase still bound, per cent of control",[32],0%
same,"kinase still bound, per cent of control",[33],0%
same,"kinase still bound, per cent of control",[34],0%
same,"kinase still bound, per cent of control",[35],2.1%
same,"kinase still bound, per cent of control",[36],0.6%
same,"kinase still bound, per cent of control",[37],0.1%
same,"kinase still bound, per cent of control",[38],0.2%
same,"kinase still bound, per cent of control",[39],0%
same,"kinase still bound, per cent of control",[40],0%
same,Kd,[41],77 nM
